Results from DBAASP.
≈ marks a conversion by molar mass, not a printed value.

Legend:
Experiment in all cases: ≥ marks a high value that may be exact or a test limit, other limits are often not marked, values filed in µg/mL are converted to µM
[1] = system: Candida albicans ATCC 2002
[2] = system: Escherichia coli ATCC 25922
[3] = system: Pseudomonas aeruginosa CMCCB 10104
[4] = system: Staphylococcus aureus ATCC 25923
[5] = system: Pseudomonas aeruginosa ATCC 27853
[6] = system: Staphylococcus aureus ATCC 33591
Escherichia coli = system: Escherichia coli
Staphylococcus aureus = system: Staphylococcus aureus

SMILES	MIC [1]	MIC [2]	MIC [3]	MIC [4]	MIC [5]	MIC [6]	MIC (Escherichia coli)	MIC (Staphylococcus aureus)
CC[C@H](C)[C@@H]1NC(=O)[C@H](CCCCN)NC(=O)[C@@H](NC(=O)[C@H](CCCCN)NC(=O)[C@H](CC(C)C)NC(=O)[C@H](CC(N)=O)NC(=O)[C@H](CC(=O)O)NC(=O)[C@H](CC(C)C)NC(=O)[C@H](CC(C)C)NC(=O)[C@@H](NC(=O)[C@@H](NC(=O)[C@H](C)NC(=O)[C@@H](NC(=O)[C@H](CC(N)=O)NC(=O)[C@H](CCCCN)NC(=O)[C@H](C)NC(=O)[C@@H](NC(=O)[C@H](CC(N)=O)NC(=O)[C@H](CCCCN)NC(=O)[C@H](C)NC(=O)[C@@H](NC(=O)[C@H](CC(N)=O)NC(=O)[C@H](CCSC)NC(=O)[C@H](Cc2ccccc2)NC(=O)CN)[C@@H](C)O)C(C)C)C(C)C)C(C)C)[C@@H](C)O)CSSC[C@@H](C(=O)O)NC(=O)CNC(=O)CNC(=O)[C@H]([C@@H](C)O)NC1=O [GFMNTAKNVAKNVAVTLLDNLKCKITGGC]	2.94 µM (≈ 8.89 µg/mL)	2.94 µM (≈ 8.89 µg/mL)	5.89 µM (≈ 17.8 µg/mL)	5.89 µM (≈ 17.8 µg/mL)	–	–	–	–
CC[C@H](C)[C@H](NC(=O)CN)C(=O)N[C@@H](CC(C)C)C(=O)NCC(=O)N[C@@H](CC(N)=O)C(=O)N[C@H](C(=O)N[C@H](C(=O)NCC(=O)N[C@@H](CCSC)C(=O)NCC(=O)N[C@@H](CCCCN)C(=O)N[C@@H](CCCCN)C(=O)N[C@H](C(=O)N[C@H](C(=O)N[C@H]1CSSC[C@@H](C(=O)O)NC(=O)[C@H](CC(C)C)NC(=O)CNC(=O)[C@H](CO)NC(=O)[C@H](CC(C)C)NC(=O)CNC1=O)C(C)C)C(C)C)C(C)C)[C@@H](C)CC [GILGNIVGMGKKVVCGLSGLC]	3.32 µM (≈ 6.69 µg/mL)	5.6 µM (≈ 11.3 µg/mL)	11.2 µM (≈ 22.6 µg/mL)	5.6 µM (≈ 11.3 µg/mL)	–	–	–	–
CC(C)C[C@H](NC(=O)CN)C(=O)N[C@@H](CC(C)C)C(=O)N[C@@H](CC(=O)O)C(=O)N[C@H](C(=O)N[C@@H](Cc1ccccc1)C(=O)N[C@@H](CCCCN)C(=O)N[C@@H](CC(N)=O)C(=O)N[C@@H](CC(C)C)C(=O)N[C@@H](C)C(=O)N[C@@H](CC(C)C)C(=O)N[C@@H](CC(N)=O)C(=O)N[C@@H](C)C(=O)N[C@@H](C)C(=O)N[C@@H](CCC(=O)O)C(=O)N[C@@H](CO)C(=O)N[C@@H](C)C(=O)NCC(=O)N[C@H](C(=O)N[C@@H](CO)C(=O)N[C@H](C(=O)N[C@@H](CC(C)C)C(=O)N[C@@H](CC(N)=O)C(=O)N[C@@H](CO)C(=O)N[C@@H](CC(C)C)C(=O)N[C@@H](CO)C(=O)N[C@H]1CSSC[C@@H](C(=O)O)NC(=O)[C@H]([C@@H](C)O)NC(=O)[C@H](CCCCN)NC(=O)[C@H](CO)NC(=O)[C@H](CC(C)C)NC(=O)[C@H](CCCCN)NC1=O)C(C)C)C(C)C)[C@@H](C)O [GLLDTFKNLALNAAESAGVSVLNSLSCKLSKTC]	2.97 µM (≈ 9.99 µg/mL)	5.94 µM (≈ 20 µg/mL)	5.94 µM (≈ 20 µg/mL)	2.97 µM (≈ 9.99 µg/mL)	–	–	–	–
CC[C@H](C)[C@H](NC(=O)CNC(=O)[C@@H](NC(=O)[C@H](CCCN=C(N)N)NC(=O)[C@@H](NC(=O)[C@@H](NC(=O)[C@H](CC(=O)O)NC(=O)[C@H](CCSC)NC(=O)CNC(=O)[C@@H](NC(=O)[C@H](CCC(=O)O)NC(=O)[C@H](CCCCN)NC(=O)CNC(=O)[C@@H](NC(=O)[C@H](CC(N)=O)NC(=O)[C@H](CCCCN)NC(=O)[C@H](C)NC(=O)CNC(=O)[C@H](CCCCN)NC(=O)[C@@H](NC(=O)[C@H](Cc1ccccc1)NC(=O)[C@H](CC(C)C)NC(=O)[C@H](CC(N)=O)NC(=O)[C@H](CCCCN)NC(=O)[C@@H](NC(=O)[C@H](C)NC(=O)[C@H](CCCCN)NC(=O)CNC(=O)[C@H](CO)NC(=O)[C@@H](NC(=O)[C@@H](N)CCCCN)[C@@H](C)CC)[C@@H](C)CC)[C@@H](C)CC)C(C)C)C(C)C)C(C)C)C(C)C)[C@@H](C)O)C(=O)N[C@@H](CC(=O)O)C(=O)N[C@H](C(=O)N[C@H](C(=O)NCC(=O)N[C@H]1CSSC[C@@H](C(=O)O)NC(=O)[C@H](CCC(=O)O)NC(=O)CNC(=O)[C@H](CCCCN)NC(=O)[C@H]([C@@H](C)CC)NC(=O)[C@H](CCCCN)NC1=O)C(C)C)C(C)C [KISGKAIKNLFIKGAKNVGKEVGMDVVRTGIDVVGCKIKGEC]	0.749 µM (≈ 3.3 µg/mL)	0.749 µM (≈ 3.3 µg/mL)	1.5 µM (≈ 6.6 µg/mL)	1.5 µM (≈ 6.6 µg/mL)	–	–	–	–
CC[C@H](C)[C@@H]1NC(=O)[C@H](C)NC(=O)[C@@H](NC(=O)[C@H](Cc2ccccc2)NC(=O)[C@H](C)NC(=O)[C@@H](NC(=O)[C@@H]2CCCN2C(=O)[C@H](CC(C)C)NC(=O)[C@@H](NC(=O)[C@H](CC(N)=O)NC(=O)[C@H](C)NC(=O)[C@H](C)NC(=O)[C@@H](NC(=O)[C@H](CCCN=C(N)N)NC(=O)[C@@H](NC(=O)[C@@H](NC(=O)[C@H](C)NC(=O)[C@@H]2CCCN2C(=O)[C@H](CC(C)C)NC(=O)[C@@H](N)Cc2ccccc2)C(C)C)[C@@H](C)CC)C(C)C)C(C)C)[C@@H](C)O)CSSC[C@@H](C(=O)O)NC(=O)[C@H](CCCCN)NC(=O)[C@H](CCCCN)NC(=O)[C@H](CO)NC1=O [FLPAVIRVAANVLPTAFCAISKKC]	1.3 µM (≈ 3.3 µg/mL)	2.61 µM (≈ 6.59 µg/mL)	5.21 µM (≈ 13.2 µg/mL)	2.61 µM (≈ 6.59 µg/mL)	–	–	–	–
C[C@H](NC(=O)[C@H](CCCN=C(N)N)NC(=O)[C@H](CCCN=C(N)N)NC(=O)[C@@H]1CCCN1C(=O)CNC(=O)[C@H](CCCN=C(N)N)NC(=O)[C@H](CCCN=C(N)N)NC(=O)CN)C(=O)N[C@@H](CC(N)=O)C(=O)N[C@@H](CCC(N)=O)C(=O)N[C@@H](CC(N)=O)C(=O)NCC(=O)N[C@H](C(=O)N[C@@H](CCCN=C(N)N)C(=O)N[C@@H](CCCN=C(N)N)C(=O)N[C@@H](CCCN=C(N)N)C(=O)N[C@@H](CCCN=C(N)N)C(=O)N[C@@H](CCCN=C(N)N)C(=O)N[C@@H](CCCN=C(N)N)C(=O)N[C@H](C(N)=O)[C@@H](C)O)[C@@H](C)O [GRRGPRRANQNGTRRRRRRT]	–	25 µM (≈ 61.9 µg/mL)	–	100 µM (≈ 248 µg/mL)	25 µM (≈ 61.9 µg/mL)	≥ 100 µM	–	–
CC[C@H](C)[C@H](NC(=O)[C@@H](N)C(C)C)C(=O)N[C@H](C(=O)N[C@@H](Cc1ccccc1)C(=O)N[C@H](C(=O)N[C@@H](C)C(=O)N[C@@H](CO)C(=O)N[C@H](C(=O)N[C@@H](C)C(=O)N[C@@H](C)C(=O)N[C@@H](CCC(=O)O)C(=O)N[C@@H](CCSC)C(=O)N[C@@H](CCSC)C(=O)N[C@@H](CCC(N)=O)C(=O)N[C@@H](Cc1cnc[nH]1)C(=O)N[C@H](C(=O)N[C@@H](Cc1ccc(O)cc1)C(=O)N[C@H]1CSSC[C@@H](C(=O)O)NC(=O)[C@H](CCCCN)NC(=O)[C@H](CCCCN)NC(=O)[C@H](CO)NC(=O)[C@H](C)NC(=O)[C@H](C)NC1=O)C(C)C)C(C)C)C(C)C)C(C)C [VIVFVASVAAEMMQHVYCAASKKC]	9.59 µM (≈ 24.8 µg/mL)	2.4 µM (≈ 6.2 µg/mL)	4.79 µM (≈ 12.4 µg/mL)	4.79 µM (≈ 12.4 µg/mL)	–	–	–	–
CC[C@H](C)[C@H](NC(=O)[C@@H](NC(=O)[C@H](CC(=O)O)NC(=O)[C@H](CC(C)C)NC(=O)[C@H](CC(C)C)NC(=O)CN)[C@@H](C)O)C(=O)N[C@@H](CCCCN)C(=O)N[C@@H](CC(N)=O)C(=O)N[C@@H](CCSC)C(=O)N[C@@H](C)C(=O)N[C@@H](CC(C)C)C(=O)N[C@@H](CC(N)=O)C(=O)N[C@@H](C)C(=O)N[C@@H](C)C(=O)N[C@@H](CCCCN)C(=O)N[C@@H](CO)C(=O)N[C@@H](C)C(=O)NCC(=O)N[C@H](C(=O)N[C@@H](CO)C(=O)N[C@H](C(=O)N[C@@H](CC(C)C)C(=O)N[C@@H](CC(N)=O)C(=O)N[C@H](C(=O)N[C@@H](CC(C)C)C(=O)N[C@@H](CO)C(=O)N[C@H]1CSSC[C@@H](C(=O)O)NC(=O)[C@H]([C@@H](C)O)NC(=O)[C@H](CCCCN)NC(=O)[C@H](CO)NC(=O)[C@H](CC(C)C)NC(=O)[C@H](CCCCN)NC1=O)[C@@H](C)O)C(C)C)C(C)C [GLLDTIKNMALNAAKSAGVSVLNTLSCKLSKTC]	5.11 µM (≈ 17.2 µg/mL)	2.56 µM (≈ 8.6 µg/mL)	2.56 µM (≈ 8.6 µg/mL)	2.56 µM (≈ 8.6 µg/mL)	–	–	–	–
CC[C@H](C)[C@H](NC(=O)CNC(=O)[C@H](CCCCN)NC(=O)CNC(=O)[C@H](C)NC(=O)[C@H](Cc1ccccc1)NC(=O)[C@H](CCCCN)NC(=O)[C@H](CO)NC(=O)[C@H](Cc1ccccc1)NC(=O)[C@H](CC(C)C)NC(=O)CN)C(=O)N[C@H](C(=O)N[C@@H](CC(N)=O)C(=O)N[C@@H](Cc1ccccc1)C(=O)N[C@@H](CC(C)C)C(=O)N[C@H](C(=O)N[C@@H](CCC(=O)O)C(=O)NCC(=O)N[C@H](C(=O)N[C@@H](CCC(=O)O)C(=O)O)C(C)C)[C@@H](C)CC)C(C)C [GLFSKFAGKGIVNFLIEGVE]	14.3 µM (≈ 30.5 µg/mL)	14.3 µM (≈ 30.5 µg/mL)	7.2 µM (≈ 15.3 µg/mL)	7.2 µM (≈ 15.3 µg/mL)	–	–	–	–
CC[C@H](C)[C@H](NC(=O)CN)C(=O)N[C@@H](CC(C)C)C(=O)N[C@@H](CO)C(=O)NCC(=O)N[C@H](C(=O)N[C@@H](CC(C)C)C(=O)NCC(=O)N[C@@H](CCSC)C(=O)NCC(=O)N[C@@H](CCCCN)C(=O)N[C@@H](CCCCN)C(=O)N[C@H](C(=O)N[C@H](C(=O)N[C@H]1CSSC[C@@H](C(=O)O)NC(=O)[C@H](CC(C)C)NC(=O)CNC(=O)[C@H](CO)NC(=O)[C@H](CC(C)C)NC(=O)CNC1=O)C(C)C)[C@@H](C)CC)C(C)C [GILSGVLGMGKKIVCGLSGLC]	2.19 µM (≈ 4.4 µg/mL)	2.19 µM (≈ 4.4 µg/mL)	4.39 µM (≈ 8.79 µg/mL)	4.39 µM (≈ 8.79 µg/mL)	–	–	25 µM (≈ 50.1 µg/mL)	50 µM (≈ 100 µg/mL)
